≈ marks a conversion by molar mass, not a printed value. Read-outs that look alike come from different tables or passages of the source. *1 amine or outer side, *2 acyl side, *3 side chain or, on linkers, in order; H or OH if unused. Where a SMILES comes first, the peptide text is derived from it. Bridges are numbered along the chain shown (N, C = ends). [ ]: non-standard residue; d: D form. The star is where a group is joined. ξ: configuration not given here. Dab(3ξ-OH) = O=C([C@@H](N[*:1])C(O)CN[*:3])[*:2]; X1 = C/C=C(/N[*:1])C(=O)[*:2]; Lauroyl = CCCCCCCCCCCC(=O)*; Decanoyl = CCCCCCCCCC(=O)*; Dab = NCC[C@H](N)C(=O)O
Columns and labels:
[1] = system: A. caviae CIP 7616; format: cell-based, Aeromonas caviae; conditions: broth microdilution, 0.1 to 100 µM, 1.10^6 UFC/mL, 48 h, read by unaided eye
Experimental: (§1) Antibacterial activity was assayed against a panel of micro-organisms including human and aquaculture pathogenic bacterial species. MICs were performed and defined according to internationally recognized standards (CLSI [21]). Polymyxin B (PMB), an antibiotic CLP produced by Paenibacillus polymyxa, was used as positive control. The major produced alterins, i.e., alt_952, alt_954, alt_970 and alt_980 were assayed against the whole panel of target cells while the minor ones were only tested against a few bacterial strains (Table 2).
(§2) The bacterial strains Aeromonas caviae CIP 7616, Aeromonas hydrophila CIP 7614, Escherichia coli ML35, Escherichia coli SBS 363, Salmonella enterica CIP 8297 and Yersinia ruckeri ATCC 29473 were grown in Tryptic Soy Broth. The marine bacterial strains Vibrio crassostreaeJ2–9, Vibrio tasmaniensisLGP32, Vibrio tapetis CECT 4600 were grown in Marine Broth. All of them were cultivated at optimal temperature according to ATCC and CIP specifications. The strain Vibrio parahaemolyticus13-028A/3 was grown at 28 °C in Tryptic Soy Broth supplemented in NaCl (20 g.L^−1) according to [47]. The strains Pseudoalteromonas sp. hCg-6 and hCg-42 were cultured using a synthetic medium containing: 17.11 g sucrose, 30 g sea salts (Sigma-S9883), 7.6 g K2HPO4, 3 g KH2PO4 and 20 mL MEM 50X (Dulbecco) per liter. The cultures were grown at 18 °C for 72 h with shaking (100 rpm).
(§3) MICs were determined using broth microdilution method according to [21]. To resume, antibacterial compounds ranging from 0.1 to 100 µM were assayed against the target bacteria in mid-logarithmic phase culture (1.10^6 UFC.mL^−1) in adapted culture medium according to the strain. MICs were examined by unaided eye after a 48h-incubation time at the optimal temperature growth. The lipopeptide PMB (Sigma-P4932) was used as antibiotic control.

[2] = system: A. hydrophila CIP 7614; format: cell-based, Aeromonas hydrophila; conditions: A. hydrophila CIP 7614; broth microdilution, 0.1 to 100 µM, 1.10^6 UFC/mL, 48 h, read by unaided eye
Experimental: as §1, §2, §3

[3] = system: E. coli ML35; format: cell-based, Escherichia coli; conditions: E. coli ML35 (long-chain LPS); broth microdilution, 0.1 to 100 µM, 1.10^6 UFC/mL, 48 h, read by unaided eye
Experimental: as §1, §2, §3

[4] = system: E. coli SBS363; format: cell-based, Escherichia coli; conditions: E. coli SBS363 (short-chain LPS); broth microdilution, 0.1 to 100 µM, 1.10^6 UFC/mL, 48 h, read by unaided eye
Experimental: as §1, §2, §3

[5] = system: P. aeruginosa ATCC 27853; format: cell-based, Pseudomonas aeruginosa; conditions: P. aeruginosa ATCC 27853; broth microdilution, 0.1 to 100 µM, 1.10^6 UFC/mL, 48 h, read by unaided eye
Experimental: as §1, §3

[6] = system: Pseudoalteromonas hCg-42; format: cell-based, Pseudoalteromonas sp.; conditions: Pseudoalteromonas hCg-42 (producing strain); broth microdilution, 0.1 to 100 µM, 1.10^6 UFC/mL, 48 h, read by unaided eye
Experimental: as §1, §2, §3

[7] = system: Pseudoalteromonas hCg-6; format: cell-based, Pseudoalteromonas sp.; conditions: Pseudoalteromonas hCg-6 (producing strain); broth microdilution, 0.1 to 100 µM, 1.10^6 UFC/mL, 48 h, read by unaided eye
Experimental: as §1, §2, §3

[8] = system: S. enterica CIP 8297; format: cell-based, Salmonella enterica; conditions: broth microdilution, 0.1 to 100 µM, 1.10^6 UFC/mL, 48 h, read by unaided eye
Experimental: as §1, §2, §3

[9] = system: V. harveyi ORM4; format: cell-based, Vibrio harveyi; conditions: V. harveyi ORM4; broth microdilution, 0.1 to 100 µM, 1.10^6 UFC/mL, 48 h, read by unaided eye
Experimental: as §1, §3

[10] = system: V. parahaemolyticus 13-028A/3; format: cell-based, Vibrio parahaemolyticus; conditions: broth microdilution, 0.1 to 100 µM, 1.10^6 UFC/mL, 48 h, read by unaided eye
Experimental: as §1, §2, §3

[11] = system: V. tapetis CECT 4600T; format: cell-based, Vibrio tapetis; conditions: V. tapetis CECT 4600T; broth microdilution, 0.1 to 100 µM, 1.10^6 UFC/mL, 48 h, read by unaided eye
Experimental: as §1, §2, §3

[12] = system: V. tasmaniensis LGP 32; format: cell-based, Vibrio tasmaniensis; conditions: V. tasmaniensis LGP 32; broth microdilution, 0.1 to 100 µM, 1.10^6 UFC/mL, 48 h, read by unaided eye
Experimental: as §1, §2, §3

[13] = system: Y. ruckeri ATCC 29473; format: cell-based, Yersinia ruckeri
Experimental: as §1, §2, §3

[14] = system: V. tasmaniensis LGP32; test: Viability (cultivability, CFU count) in seawater; format: cell-based, Vibrio tasmaniensis; conditions: 20 µM, 4 h incubation in sterile seawater, inoculum 1.10^6 UFC/mL, plated in duplicate
Experimental: As a first step, we have measured the antimicrobial activity of alt_952, alt_954, alt_970 and alt_980 against V. tasmaniensis LGP32 in seawater after a 4 hour-long incubation. […] The effects on membrane were also investigated under the same experimental conditions using live/dead bacterial viability kit for flow cytometry (Figure 6). A net cultivability loss of V. tasmaniensis (2-log reduction) was observed when incubated with alt_954 and alt_980 indicative of a bactericidal effect (Figure 7A). In these conditions, V. tasmaniensis was much less affected by alt_970 (1-log reduction) and not by alt_952 (Figure 7A).
[…] After a 4 h-long incubation, viable bacteria were counted. Diluted samples (50 µL) in sterile seawater were spread in duplicate on appropriate medium. Cultivable bacterial concentration (CFU mL^−1) was determined after overnight incubation at optimal growth temperature.

[15] = LPS binding, QCL-1000 chromogenic Limulus Amoebocyte Lysate (LAL) assay; parameters: species or system Escherichia coli; conditions: LPS 1 EU/mL pre-incubated with CLPs 0.01 to 10 µM, 15 min, 37 °C
Excerpt: To gain insights into LPS-alterin interactions, we used an endotoxin detection assay, the QCL-1000^TM Endpoint chromogenic Limulus Amoebocyte Lysate (LAL) assay (Lonza). We compared alt_954, alt_970 and alt_980 for their ability to bind LPS from E. coli O111:B4. All alterins bound to LPS in a dose-dependent manner, as indicated by the reduction of biologically active LPS with increasing alterins concentrations (Figure 4A). […] To examine alterin LPS-binding properties in more detail, we performed a surface plasmon resonance (SPR) assay using the Biacore technology (GE Healthcare). The SPR binding measurements were performed using the alt_954 and alt_970. PMB was used as a positive control. The CLPs were immobilized to a CM5 sensor chip surface and titrated with LPS. […] The dose-dependent effect observed (Figure 4B) highlights the LPS-binding properties of the alterins. Both LPS-binding assays, i.e., LAL and SPR, are fully agreeing for alt_954. Moreover, the LPS-binding properties of alterins followed the same general pattern as that of antibacterial activity.
The CLPs were assayed for their LPS-binding properties by using the QCL-1000 Limulus Amoebocyte Lysate kit (LAL-Lonza, Bâle, Switzerland) according to manufacturer instructions. […] Free LPS was then quantified according to the manufacturer’s instructions. […]

[16] = Y. ruckeri ATCC 29473, broth microdilution, 0.1 to 100 µM, 1.10^6 UFC/mL, 48 h, read by unaided eye

## C/C=C1/NC(=O)[C@@H](NC(=O)CCCCCCCCC)C(O)CNC(=O)[C@H](C(O)CN)NC(=O)[C@H](C(O)CN)NC(=O)[C@H](CCCNC(=N)N)NC(=O)[C@H](CC(C)C)NC(=O)[C@H](CCN)NC1=O (stereo partly drawn) [alt_954] (Decanoyl-[Dab(3ξ-OH)][X1][Dab]LR[Dab(3ξ-OH)][Dab(3ξ-OH)]; lactam 1-C)
[1]
  MIC: 5.5 µM (≈ 5.25 µg/mL)
[2]
  MIC: 2.7 µM (≈ 2.58 µg/mL)
[3]
  MIC: 1.4 µM (≈ 1.34 µg/mL)
[4]
  MIC: 0.2 µM (≈ 0.191 µg/mL)
[5]
  MIC: 22 µM (≈ 21 µg/mL)
[6]
  MIC: >100 µM
[7]
  MIC: >100 µM
[8]
  MIC: 0.7 µM (≈ 0.669 µg/mL)
[9]
  MIC: 1.4 µM (≈ 1.34 µg/mL)
[10]
  MIC: 6.25 µM (≈ 5.97 µg/mL)
[11]
  MIC: >100 µM
[12]
  MIC: 2.7 µM (≈ 2.58 µg/mL)
[13]; [16]
  MIC: 0.3 µM (≈ 0.287 µg/mL)
[14]
  cultivability loss of V. tasmaniensis (log reduction of CFU): 2 log
[15]
  LPS binding (reduction of biologically active LPS, LAL assay): more efficiently than alt_970

## C/C=C1/NC(=O)[C@@H](NC(=O)CCCCCCCCCCC)C(O)CNC(=O)[C@H](C(O)CN)NC(=O)[C@H](C(O)CN)NC(=O)[C@H](CCCNC(=N)N)NC(=O)[C@H](CC(C)C)NC(=O)[C@H](CCN)NC1=O (stereo partly drawn) [alt_982] (Lauroyl-[Dab(3ξ-OH)][X1][Dab]LR[Dab(3ξ-OH)][Dab(3ξ-OH)]; lactam 1-C)
[4]
  MIC: 6.3 µM (≈ 6.19 µg/mL)
[13]; ATCC 29473, 48 h
  MIC: 12.5 µM (≈ 12.3 µg/mL)

## Polymyxin B [PMB, reference compound]
[1]
  MIC: 3.1 µM
[2]
  MIC: 0.8 µM
[3]
  MIC: 3.1 µM
[4]
  MIC: 0.2 µM
[5]
  MIC: 1.6 µM
[6]
  MIC: >100 µM
[7]
  MIC: >100 µM
[8]
  MIC: 0.8 µM
[9]
  MIC: 25 µM
[10]
  MIC: >100 µM
[11]
  MIC: >100 µM
[12]
  MIC: 3 µM
[13]; [16]
  MIC: 0.4 µM
